Experimental data published in patent US20240209456A1, “METHODS AND COMPOSITIONS RELATED TO CELL-CYCLE RNA's” (BETH ISRAEL DEACONESS MEDICAL CENTER, priority 2021, published 2024).
*1 amine or outer side, *2 acyl side, *3 side chain or, on linkers, in order; H or OH if unused. Where a SMILES comes first, the peptide text is derived from it. Bridges are numbered along the chain shown (N, C = ends). Roman numbers before positions name the chains, in order. [ ]: non-standard residue; d: D form. Actinocin(9to1) = Cc1c2oc3c(C)ccc(C(=O)[*:1])c3nc-2c(C(=O)[*:2])c(N)c1=O; NMeV = CN[C@H](C(=O)O)C(C)C; Sar = CNCC(=O)O

Legend:
Format in all cases: cell-based, human
HL-60 cells = experiment: nasRNA-seq, genome wide transcription inhibition upon DRB and ActD treatment; conditions: HL-60 released from double thymidine block, 2 hr, DRB 200 μM, ActD 0.8 μM; for average gene expression reduction: vs DMSO
Procedure: Nascent RNA/DNA capture was performed using Click-iT Nascent RNA Capture Kit (ThermoFisher) according to the manufacturer's instructions with minor modifications. Briefly, 1. Labeling the cells with EU/EdU. 200 mM EU or 30 mM EdU stock solutions were added to the cells, to a final concentration 0.5 mM or 30 μM, respectively. 2. Incubation. The cells were incubated for 1 or 2 hours. 3. RNA/DNA isolation. The cells were harvested and the RNA/DNA were isolated and dissolved in 14 μL of H2O. 4. Biotinylation of RNA/DNA by Click reaction. Click-iT reaction cocktail (50 μL per reaction) was prepared accordingly to manufacturer's instructions: a mixture containing 1× Click-iT EU buffer; 2 mM CuSO4; 1 mM Biotin azide; 13.25 μL of the isolated RNA; 10 mM Click-iT reaction buffer additive 1; 12 mM Click-iT reaction buffer additive 2 was prepared. After adding each component, the reaction cocktail was gently mixed by vortexing. The addition of the Click-iT reaction buffer additive 1 stock initiates the click reaction between the EU-RNA/EdU-DNA and biotin azide. Afterwards the Click-iT® reaction buffer additive 2 is added and incubated for 30 minutes with gentle vortexing. 5. RNA/DNA precipitation. 1 μL of ULTRAPURE™ Glycogen, 55 μL of 7 M ammonium acetate, and 750 μL of chilled 100% ethanol were added to the click reaction, incubated at −70° C. for at least 30 minutes and after centrifugation the pellet was dissolved in 125 μL of H2O. 6. Binding biotinylated RNA/DNA to Dynabeads® MYONE™ Streptavidin Ti magnetic beads. The RNA/DNA binding reaction mixture included: 125 μL 2×Click-iT RNA binding buffer; 2 μL Ribonuclease Inhibitor or 2 μL of water for DNA; 125 μL of the isolated biotinylated RNA/DNA. The RNA binding reaction mixture was heated at 68-70° C. for 5 minutes and 50 μL of bead suspension added into the heated RNA binding reaction mixture. The tube containing the RNA/DNA binding reaction was incubated at r.t. for 30 min while gently vortexing to prevent the beads from settling. The beads were immobilized using the magnet and washed 5 times with 500 μL of Click-iT® reaction wash buffer 1 and 5 times with 500 μL of Click-iT® reaction wash buffer 2. Finally, the beads were resuspended in 50 μL of Click-iT reaction wash buffer 2 and the captured RNA immediately processed to cDNA synthesis. The captured DNA was released into 50 μL of boiling water and used in qPCR analyses.
Double Thymidine block (early S-phase block) was carried out as described. […] Synchrony was monitored by flow cytometry analysis of propidium iodide-stained cells using a LSRII flow cytometer (BD Biosciences) at the Harvard Stem Cell Institute/Beth Israel Deaconess Center flow cytometry facility. […]

H2A.Z = experiment: Western blot of total proteins, H2A.Z; conditions: HL-60, 2 hours treatment, FIG. 10A
Procedure: (§1) Whole-cell lysates from approximately 0.2×10^6 cells per each sample were separated on 12% SDS-PAGE gels and transferred to a nitrocellulose membrane. Immunoblots were stained overnight at 4° C. with the following primary antibodies: H2A.Z (1:2,000; Abcam ab4174), H2A.Z acetyl (K4+K7+K11) (1:2,000; Abcam ab18262) or TIP60 (1:1000; generous gift from Bruno Amati). All secondary horseradish peroxidase (HRP)-conjugated antibodies were diluted 1:5,000 and incubated for 1 hr at room temperature with TBST/5% BSA. Immuno-reactive proteins were detected using the Pierce® ECL system (Thermo Scientific #32106).

TIP60 = experiment: Western blot of total proteins, TIP60; conditions: HL-60, 2 hours treatment, FIG. 10A
Procedure: as §1

c-MYC mRNA = experiment: qRT-PCR of c-MYC mRNA; conditions: HL-60 released from double thymidine block, 2 hrs; MG149 200 μM, TH1834 500 μM
Procedure: Total RNA isolation was carried out and all RNA samples used in this study were treated with DNase I (10 U of DNase I per 3 μg of total RNA; 37° C. for one hour; in the presence of RNase inhibitor). After DNase I treatment, RNA samples were extracted with acidic phenol (pH 4.3) to eliminate any remaining traces of DNA. cDNA syntheses were performed with Random Primers (Invitrogen) or gene-specific primers with Transcriptor Reverse Transcriptase (Roche Applied Science) according to the manufacturer's recommendation. cDNA was purified with a High Pure PCR Product Purification Kit (Roche Applied Science).
Sybr green reaction was performed using iQ Sybr Green supermix (Biorad, Hercules, CA) using the following parameters: 95° C. (10 min), 40 cycles of 95° C. (15 s) and 60° C. (1 min) 72° C. (1 min). TaqMan analysis was performed using Hotstart Probe One-step qRT-PCR master mix (USB) at the following conditions: 50° C. (10 min.), 95° C. (2 min.), and then 40 cycles of 95° C. (15 sec.) and 60° C. (60 sec.).
Nascent RNA/DNA capture was performed using Click-iT Nascent RNA Capture Kit (ThermoFisher) according to the manufacturer's instructions with minor modifications. Briefly, 1. Labeling the cells with EU/EdU. 200 mM EU or 30 mM EdU stock solutions were added to the cells, to a final concentration 0.5 mM or 30 μM, respectively. 2. Incubation. The cells were incubated for 1 or 2 hours. 3. […]

Compound | gene expression reduction ratio across distributions (treated/DMSO) (HL-60 cells) | average gene expression reduction (HL-60 cells) [%] | overall global content of H2A.Z (H2A.Z) | overall global content of TIP60 (TIP60) | response of total c-MYC mRNA (c-MYC mRNA)
Cc1c2oc3c(C)ccc(C(=O)N[C@@H]4C(=O)N[C@H](C(C)C)C(=O)N5CCC[C@H]5C(=O)N(C)CC(=O)N(C)[C@@H](C(C)C)C(=O)O[C@@H]4C)c3nc-2c(C(=O)N[C@@H]2C(=O)N[C@H](C(C)C)C(=O)N3CCC[C@H]3C(=O)N(C)CC(=O)N(C)[C@@H](C(C)C)C(=O)O[C@@H]2C)c(N)c1=O [ActD, Actinomycin D] (I: T[dV]P[Sar][NMeV] / II: T[dV]P[Sar][NMeV]; ester I:1-I:C, II:1-II:C; linker I:N-II:N via Actinocin(9to1)) | 0.21 | 79 | not affected | not affected | 
OC[C@H]1O[C@@H](n2cnc3cc(Cl)c(Cl)cc32)[C@H](O)[C@@H]1O [DRB, 5,6-Dichlorobenzimidazole 1-β-D-ribofuranoside] | 0.45 | 55 | not affected | not affected | 
CCCCCCCc1ccc(CCc2cccc(O)c2C(=O)O)cc1 [MG149] |  |  |  |  | downregulated
O=C(O)Cn1nnc(-c2ccc(CN(CCCCOc3ccc(CN4CCCC4)cc3)CCc3ccccc3)cc2)n1 [TH1834] |  |  |  |  | downregulated
